Data published in patent publication US8865408B2, “Signature for the diagnosis of cancer aggressiveness and genetic instability” (Centre National de la Recherche Scientifique (CNRS), priority 2009, dated 2014).

What was measured:
MCF7 cells = experiment: Clonogenic assay, sensitivity to Chk2 inhibitor; assay type: cell-based; conditions: MCF7 compared with MDA-MB231 cells, 1 μM to 150 μM during 16 hours, seven more days
Procedure: FIG. 12. Effect of POLQ gene expression level on sensitivity to a Chk2 inhibitor. […] Survival is determined in a clonogenic assay. MCF7: squares; MDA-MB231: diamonds (B) POLQ expression is higher in MCF7 than in MDA-MB231. Gene expression levels are assayed by RT-PCR. C51 is a normal breast cell line.
MDA-MB231 and MCF7 breast cancer cells (ATCC) were grown in RPMI 1640+ glutamax medium. A 13.8 mM Chk2 inhibitor II Hydrate (Sigma RefC3742) stock solution was prepared by diluting the agent in DMSO (Sigma) and stored at −20° C. This solution was diluted in culture medium to give as indicated the final drug concentration. Cells were exposed to different concentrations ranging from 1 μM to 150 μM during 16 hours. Cells were washed with PBS buffer, fresh medium was added and cells were incubated for seven more days. Cells were fixed with NaCl 0.9% and stained with crystal violet (Sigma C3886). Clones containing more than 20 cells were counted. For the clonogenic assay 400 cells were seeded in six-well plates and incubated overnight. The POLQ expression was measured by real-time PCR as described above.
Cells overexpressing POLQ accumulate DNA damage. […] In order to test this hypothesis, the viability of the MCF7 and MDA-MB231 cells was determined in the presence of increasing amounts of a Chk2 inhibitor. […]

[1] = system: POLQ overexpressing (Q1, Q2, Q3) and isogenic control (CTL2, CTL5) cells; experiment: Clonogenic assay, sensitivity to alkylating agents; assay type: cell-based, human; conditions: POLQ over-expressing clones vs isogenic controls; MMS 1 h at 37° C., MNU continuous
Procedure: FIG. 9. Sensitivity to alkylating agents. Drug sensitivity was determined by clonogenic assay. Sensitivity of POLQ overexpressing (Q1, Q2, Q3) and isogenic control (CTL2, CTL5) cells to methyl methanesulfonate (MMS) and N-methyl-N-nitrosourea (MNU). Survival is expressed as the relative plating efficiency of treated cells to the controls. […] Results are the mean+/−SD of at least three separate experiments performed in duplicate.
POLQ overexpression was immuno-detected as published (Seki et al. Nucleic Acids Res 31: 6117-6126, 2003), using purified protein as a size control.
Treatment was 1 h at 37° C. for methyl methanesulfonate (MMS) and continuous for N-methyl-N-nitrosourea (MNU) Immunodetection of γ-H2AX and PT68-CHK2 was carried out according to Rao et al. (Rao et al. Mol Cancer Res 5:713-24, 2007).
A proposed role of POLQ in BER could be that over-expressed POLQ interferes with the BER pathway and leads to an accumulation of endogenous DNA damage (including damage generated by reactive oxygen species). To test this hypothesis, we measured the sensitivity of the POLQ over-expressing cells to methyl-methanesulfonate (MMS) and Nitroso-N-methylurea (MNU) (FIG. 9), both of which induce DNA damage repaired by BER.

Row | SMILES | sensitivity to Chk2 inhibitor (survival in clonogenic assay) (MCF7 cells) | sensitivity to Chk2 inhibitor (survival in clonogenic assay) (MCF7 cells; listed as CHK2 inhibitor) | effect of POLQ over-expression on survival to treatment [1]
1 | NC(=O)c1ccc2nc(-c3ccc(Oc4ccc(Cl)cc4)cc3)[nH]c2c1.O [Chk2 inhibitor II Hydrate] | higher sensitivity | hypersensitive | –
2 | COS(C)(=O)=O [MMS, methyl methanesulfonate] | – | – | did not significantly affect survival
3 | CN(N=O)C(N)=O [MNU, N-methyl-N-nitrosourea] | – | – | did not significantly affect survival
